# From ChEMBL document CHEMBL1201862, “PubChem BioAssay data set” (2004)
#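 Values below derive from 48-hour exposures of cells grown in 96-well plates, with endpoints linearly interpolated between the two concentrations bracketing the appropriate inhibition level. Abbreviation: GI50, concentration required for 50% inhibition of growth.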 Active and inactive are the calls of the source. Cut-off read from the data, not from the text of the source: active = GI50 up to about 1.1 µM and inactive = higher.
# How the values were obtained:
# Test in all cases: DTP human tumour cell line panel, 48 h
# [1] = tested on: K562
# [2] = tested on: UACC-62
# [3] = tested on: A498
# [4] = tested on: NCI/ADR-RES
# [5] = tested on: CAKI-1
# [6] = tested on: ACHN
# [7] = tested on: EKVX
# [8] = tested on: PC-3
# [9] = tested on: NCI-H23
# [10] = tested on: T47D
# [11] = tested on: SK-MEL-28
# [12] = tested on: MOLT-4
# [13] = tested on: MDA-MB-231
# [14] = tested on: RXF 393
# [15] = tested on: U-251
# [16] = tested on: SK-MEL-5
# [17] = tested on: SF-539
# [18] = tested on: HCC 2998
# [19] = tested on: OVCAR-4
# [20] = tested on: COLO 205
# [21] = tested on: CCRF-CEM
# [22] = tested on: SK-MEL-2
# [23] = tested on: MCF7
# [24] = tested on: TK-10
# [25] = tested on: HOP-62
# [26] = tested on: OVCAR-8
# [27] = tested on: RPMI-8226
# [28] = tested on: HOP-92
# [29] = tested on: HT-29
# [30] = tested on: HL-60
# [31] = tested on: UO-31
# [32] = tested on: SN12C
# [33] = tested on: SW-620
# [34] = tested on: NCI-H226
# [35] = tested on: SK-OV-3
# [36] = tested on: HCT-15
# [37] = tested on: A549
# [38] = tested on: NCI-H522
# [39] = tested on: HCT-116
# [40] = tested on: UACC-257
# [41] = tested on: KM12
# [42] = tested on: LOX IMVI
# [43] = tested on: SF-295
# [44] = tested on: SF-268
# [45] = tested on: MDA-MB-435
# [46] = tested on: DU-145
# [47] = tested on: M14
# [48] = tested on: MDA-N
# [49] = tested on: 786-0
# [50] = tested on: Hs-578T
# [51] = tested on: IGROV-1
# [52] = tested on: SNB-19
# [53] = tested on: Malme-3M
# [54] = tested on: OVCAR-3
# [55] = tested on: OVCAR-5
# [56] = tested on: NCI-H460
compound,measurement,setting,value
CC(C)C1SCc2nc3ccccc3n21 (stereo not given),GI50,[1],34.5 µM (inactive)
same,GI50,[2],35.1 µM (inactive)
same,GI50,[3],30.1 µM (inactive)
same,GI50,[4],29.4 µM (inactive)
same,GI50,[5],40.1 µM (inactive)
same,GI50,[6],19.7 µM (inactive)
same,GI50,[7],32.4 µM (inactive)
same,GI50,[8],13.2 µM (inactive)
same,GI50,[9],25.9 µM (inactive)
same,GI50,[10],58.1 µM (inactive)
same,GI50,[11],68.1 µM (inactive)
same,GI50,[12],20 µM (inactive)
same,GI50,[13],24.2 µM (inactive)
same,GI50,[14],39.6 µM (inactive)
same,GI50,[15],51.4 µM (inactive)
same,GI50,[16],16.4 µM (inactive)
same,GI50,[17],38.2 µM (inactive)
same,GI50,[18],78 µM (inactive)
same,GI50,[19],27.4 µM (inactive)
same,GI50,[20],12.7 µM (inactive)
same,GI50,[21],34.8 µM (inactive)
same,GI50,[22],29.8 µM (inactive)
same,GI50,[23],13.9 µM (inactive)
same,GI50,[24],38.5 µM (inactive)
same,GI50,[25],50.8 µM (inactive)
same,GI50,[26],40.2 µM (inactive)
same,GI50,[27],31.5 µM (inactive)
same,GI50,[28],16.3 µM (inactive)
same,GI50,[29],40.4 µM (inactive)
same,GI50,[30],43 µM (inactive)
same,GI50,[31],44.8 µM (inactive)
same,GI50,[32],21.8 µM (inactive)
same,GI50,[33],65.8 µM (inactive)
same,GI50,[34],< 0.01 µM (active)
same,GI50,[35],> 100 µM (inactive)
same,GI50,[36],50.1 µM
same,GI50,[37],37.9 µM (inactive)
same,GI50,[38],71.3 µM (inactive)
same,GI50,[39],30.6 µM (inactive)
same,GI50,[40],32.8 µM (inactive)
same,GI50,[41],17.8 µM (inactive)
same,GI50,[42],35.4 µM (inactive)
same,GI50,[43],30.5 µM (inactive)
same,GI50,[44],64.3 µM (inactive)
same,GI50,[45],28.8 µM (inactive)
same,GI50,[46],91.4 µM (inactive)
same,GI50,[47],33.4 µM (inactive)
same,GI50,[48],38.9 µM (inactive)
same,GI50,[49],84.9 µM (inactive)
same,GI50,[50],36.1 µM (inactive)
same,GI50,[51],24.4 µM (inactive)
same,GI50,[52],51.8 µM (inactive)
same,GI50,[53],37.2 µM (inactive)
same,GI50,[54],39.8 µM (inactive)
same,GI50,[55],77.3 µM (inactive)
same,GI50,[56],46.3 µM (inactive)
Cc1cc(=O)[nH]c(-n2[nH]c(C)c(CCO)c2=O)n1,GI50,[1],> 100 µM (inactive)
same,GI50,[2],> 100 µM (inactive)
same,GI50,[3],> 100 µM (inactive)
same,GI50,[4],> 100 µM (inactive)
same,GI50,[5],> 100 µM (inactive)
same,GI50,[6],> 100 µM (inactive)
same,GI50,[7],> 100 µM (inactive)
same,GI50,[8],> 100 µM (inactive)
same,GI50,[9],> 100 µM (inactive)
same,GI50,[10],> 100 µM (inactive)
same,GI50,[11],> 100 µM (inactive)
same,GI50,[13],> 100 µM (inactive)
same,GI50,[14],> 100 µM (inactive)
same,GI50,[15],> 100 µM (inactive)
same,GI50,[16],> 100 µM (inactive)
same,GI50,[17],> 100 µM (inactive)
same,GI50,[18],> 100 µM (inactive)
same,GI50,[19],> 100 µM (inactive)
same,GI50,[20],> 100 µM (inactive)
same,GI50,[21],> 100 µM (inactive)
same,GI50,[22],> 100 µM (inactive)
same,GI50,[23],> 100 µM (inactive)
same,GI50,[24],> 100 µM (inactive)
same,GI50,[25],> 100 µM (inactive)
same,GI50,[26],> 100 µM (inactive)
same,GI50,[27],> 100 µM (inactive)
same,GI50,[29],> 100 µM (inactive)
same,GI50,[30],> 100 µM (inactive)
same,GI50,[31],> 100 µM (inactive)
same,GI50,[32],> 100 µM (inactive)
same,GI50,[33],> 100 µM (inactive)
same,GI50,[34],> 100 µM (inactive)
same,GI50,[35],> 100 µM (inactive)
same,GI50,[36],> 100 µM
same,GI50,[37],> 100 µM (inactive)
same,GI50,[38],> 100 µM (inactive)
same,GI50,[39],> 100 µM (inactive)
same,GI50,[40],> 100 µM (inactive)
same,GI50,[41],> 100 µM (inactive)
same,GI50,[42],> 100 µM (inactive)
same,GI50,[43],> 100 µM (inactive)
same,GI50,[44],> 100 µM (inactive)
same,GI50,[45],> 100 µM (inactive)
same,GI50,[46],> 100 µM (inactive)
same,GI50,[47],> 100 µM (inactive)
same,GI50,[48],> 100 µM (inactive)
same,GI50,[49],> 100 µM (inactive)
same,GI50,[50],> 100 µM (inactive)
same,GI50,[51],> 100 µM (inactive)
same,GI50,[52],> 100 µM (inactive)
same,GI50,[53],> 100 µM (inactive)
same,GI50,[54],> 100 µM (inactive)
same,GI50,[55],> 100 µM (inactive)
same,GI50,[56],> 100 µM (inactive)
